Assays:
BJ cells = test: Lactate dehydrogenase (LDH) release assay, BJ cells; assay type: cell-based, human
Experimental: Membrane integrity after peptide treatment was assessed based on LDH release using a CytoTox 96 Non-Radioactive Cytotoxicity Assay (Promega), as previously described. […] Maximal LDH release was obtained by complete cell lysis induced by using 1% of Triton X-100. The absorption resulting from LDH activity was measured in a microplate reader Mithras 940 (Berthold) at 490 nm, and the % LDH was calculated as: [(corrected absorbance of the LDH released in treated cells)/(corrected absorbance of the total LDH released)] * 100%.

P. aeruginosa 27853 = test: MIC by broth microdilution; assay type: cell-based, Pseudomonas aeruginosa; settings: P. aeruginosa 27853, planktonic
Experimental: (§1) The antibacterial assays were carried out using two Gram-negative (Escherichia coli ATCC 25922, Pseudomonas aeruginosa ATCC 27853) and two Gram-positive (Staphylococcus aureus ATCC 25923, MRSA (meticillin-Resistant S. aureus) 388 (ATCC, American Type Culture Collection) bacteria.
(§2) The antimicrobial activity of the two complexes (1) and (2) was assessed using their minimum inhibitory concentration (MIC) by the broth microdilution method, as previously described by the Clinical and Laboratory Standard Institute (CLSI; M07-A9 document). A broth microdilution assay was performed in sterile 96-well plates using Muller-Hinton broth (Scharlau; MHB). The compounds solubilized in […] (1,000 μg/mL) were serially diluted in 90 μL MHB, in concentrations ranging between 500 and 0.97 μg/mL. Overnight cultures were used to prepare suspension in phosphate-buffered saline (pH 7.0) to match a 0.5 McFarland density. The bacterial suspensions were further diluted to 1:100 by adding 0.1 mL of bacterial suspension to 9.9 mL of MHB. A volume of 10 μL of this dilution was added to each well of columns 1–10, containing different concentrations of the tested compounds. […] Additionally, 10 μL of the diluted bacterial suspension was added in column 11 (the growth control). A volume of 100 μL MHB was added to the microtiter plates’ sterility control wells (column 12). After inoculation, the plates were incubated at 35 ± 2 °C for 18 h. Growth was measured as light absorbance (620 nm) in comparison to an uninoculated well (negative control). It was detected using a microtiter plate reader (Apollo LB 911ELISA (Berthold Technologies GmbH & Co. KG, Waltham, MA, USA)). The MIC of each compound was defined as the lowest concentration required to inhibit bacterial growth.

MRSA 388 [1] = test: MIC by broth microdilution; assay type: cell-based, Staphylococcus aureus; settings: MRSA 388, planktonic
Experimental: as §1, §2

S. aureus 25923 [2] = test: MIC by broth microdilution; assay type: cell-based, Staphylococcus aureus; settings: S. aureus 25923, planktonic
Experimental: as §1, §2

E. coli 25922 = test: Biofilm formation on polystyrene (crystal violet), MBEC; assay type: cell-based, Escherichia coli; settings: E. coli 25922, biofilm
Experimental: as §1
(§3) The method for assessment of biofilm formation on polystyrene microtiter plates was based on previously published protocols. The absorbance at 490 nm was measured with an Apollo LB 911ELISA (Berthold Technologies GmbH & Co. KG, Waltham, MA, USA) reader. The minimal biofilm-eradication concentration (MBEC) was defined as the lowest concentration of antibiotics required to eradicate the biofilm. All experiments were performed in triplicate.

MRSA 388 [3] = test: as above; assay type: cell-based, Staphylococcus aureus; settings: MRSA 388, biofilm
Experimental: as §1, §3

S. aureus 25923 [4] = test: as above; assay type: cell-based, Staphylococcus aureus; settings: S. aureus 25923, biofilm
Experimental: as §1, §3

Saccharomyces cerevisiae = assay type: cell-based; settings: for sensitivity of sod1Δ and sod2Δ to menadione: 0.1 mM, SC medium; for sensitivity of sod1Δ and sod2Δ to menadione / lysine auxotrophy of sod1Δ cells (growth in SC-Lys medium): 16 h; for lysine auxotrophy of sod1Δ cells (growth in SC-Lys medium): various concentrations; for growth of yeast cells (WT, sod1Δ, sod2Δ): concentrations up to 2 mM
Experimental: The Saccharomyces cerevisiae laboratory strain BY4741 (MATa; his3Δ1; leu2Δ0; met15Δ0; ura3Δ0) considered wild type (WT), and the isogenic strains sod1Δ and sod2Δ lacking the genes SOD1 (encoding Cu/Zn-superoxide dismutase) and SOD2 (encoding Mn-superoxide dismutase) were obtained from EUROSCARF (Frankfurt, Germany). Cells were maintained, manipulated and grown in a rich medium (YPD, 1% w/v yeast extract, 2% w/v peptone, 2% w/v glucose; 2% w/v agar was added for solid media) or on synthetic complete medium (SC, 0.67% w/v yeast nitrogen base without amino acids, 2% w/v glucose) supplemented with the necessary amino acids. Lysine drop-out medium (SC-Lys) was prepared similarly to SC, omitting lysine from the recipe. We added the complexes to autoclaved media from DMSO sterile stocks (10 mM). An overnight culture was 10^3-fold diluted in fresh medium and incubated (200 rpm, 30 °C) until the culture reached a density of 5 × 10^5 cells. The compounds were added to the desired concentrations, and culture growth was monitored at 660 nm in a 96-well multi-scanner plate reader equipped with a thermostat and shaker (Varioskan, Thermo Fischer Scientific, Vantaa, Finland). Three biological replicates were set for all determinations, and data were presented as average ± standard error (SE). The Saccharomyces cerevisiae laboratory strain BY4741 (MATa; his3Δ1; leu2Δ0; met15Δ0; ura3Δ0) considered wild type (WT), and the isogenic strains sod1Δ and sod2Δ lacking the genes SOD1 (encoding Cu/Zn-superoxide dismutase) and SOD2 (encoding Mn-superoxide dismutase) were purchased from EUROSCARF (Frankfurt, Germany). Cells were maintained and manipulated and grown in YPD medium (1% w/v yeast extract, 2% w/v peptone, 2% w/v glucose; 2% w/v agar was added for solid media). Complexes were added to autoclaved media from DMSO sterile stocks (10 mM). To determine the effect of compounds on yeast growth, a fresh overnight pre-culture was 10^3-fold diluted in YPD and incubated (200 rpm, 30 °C) until the culture reached a density of 5 × 10^5 cells/mL. The compounds were added at the desired concentrations, and cell proliferation was monitored at 660 nm in a 96-well multi-scanner auto reader plate reader equipped with a thermostat and shaker (Varioskan Thermo Fischer Scientific, Vantaa, Finland). All determinations were done on three biological replicates.

Row | SMILES | membrane integrity (LDH release) (BJ cells; 24 h and 48 h) | MIC (P. aeruginosa 27853) [µM] | MIC (MRSA 388 [1]) [µM] | MIC (S. aureus 25923 [2]) [µM] | MBEC (E. coli 25922) [mM] | MBEC (MRSA 388 [3]) [mM] | MBEC (S. aureus 25923 [4]) [mM] | sensitivity of sod1Δ and sod2Δ to menadione (Saccharomyces cerevisiae) | lysine auxotrophy of sod1Δ cells (growth in SC-Lys medium) (Saccharomyces cerevisiae) | growth of yeast cells (WT, sod1Δ, sod2Δ) (Saccharomyces cerevisiae) | membrane integrity (LDH release) (BJ cells; 24 h) | LDH release (BJ cells; 48 h)
1 | Cc1cc(C)n2ncnc2n1.Cc1cc(C)n2ncnc2n1.Cc1cc(C)n2ncnc2n1.O.[Cu+2].[O-][Cl+3]([O-])([O-])[O-].[O-][Cl+3]([O-])([O-])[O-].c1ccc(-c2ccccn2)nc1 [Complex (1), [Cu(bpy)(dmtp)2(OH2)](ClO4)2·dmtp] | did not affect the membrane integrity | 710 | 350 | 180 | 0.71 | 0.35 | 0.18 | alleviated the sensitivity of sod1Δ and sod2Δ to menadione | improved the growth of sod1Δ mutants | not affected |  | 
2 | Cc1cc(C)n2ncnc2n1.Cc1cc(C)n2ncnc2n1.Cc1cc(C)n2ncnc2n1.O.[Cu+2].[O-][Cl+3]([O-])([O-])[O-].[O-][Cl+3]([O-])([O-])[O-].c1cnc2c(c1)ccc1cccnc12 [Complex (2), [Cu(phen)(dmtp)2(OH2)](ClO4)2·dmtp] |  | 690 | 20 | 40 | 0.17 | 0.04 | 0.04 | alleviated the sensitivity of sod1Δ and sod2Δ to menadione | improved the growth of sod1Δ mutants | not affected | not affected | around 20%

— paper PMC8620715, “Biological Activity of Triazolopyrimidine Copper(II) Complexes Modulated by an Auxiliary N-N-Chelating Heterocycle Ligands” (Molecules, 2021)
